Experimental data taken from patent publication US11865126B2, “Method for treating anxiety disorders, headache disorders, and eating disorders with psilocybin” (priority 2019, dated 2024).

Tested on: healthy subjects
Assay: Life Changes Inventory (LCI)
Type: in vivo, human
Source text: In some embodiments, the Life Changes Inventory (LCI) questionnaire is utilized to evaluate the safety and/or efficacy of psilocybin. The LCI is designed as a questionnaire to investigate those variables present in the day-to-day experience of adults that might relate either to stability or decline of intellectual ability.
The following list of outcome measures are non-exhaustive. • a. The short-term change from Baseline (Day −1 [Visit 2]) to Day 7 (Visit 5) in cognitive measures of attention, spatial and working memory and executive function was measured by a composite score of the CANTAB Panel (Spatial Working Memory [SWM], Rapid Visual Information Processing [RVP], Paired Associates Learning [PAL]). • b. The short-term change from Baseline (Day −1 [Visit 2]) to Day 7 (Visit 5) in Social Cognition Panel scales (Pictorial Empathy Test [PET], Reading the Mind in the Eyes Test [RMET], Toronto Empathy Questionnaire [TEQ], Social Value Orientation [SVO], Scale of Social Responsibility [SSR]). • c. The change from Baseline (Day −1 [Visit 2]) to Day 28 (Visit 6) in cognitive measures of attention, spatial and working memory and executive function as measured by a composite score of the CANTAB Panel (SWM, RVP, PAL). • d. The long-term change from Baseline (Day −1 [Visit 2]) to Day 84 (Visit 7) in Social Cognition Panel scales (PET, RMET, TEQ, SVO, SSR). • e. Dose-related differences between cognitive effects of psilocybin at Baseline (Day −1 [Visit 2]), Day 7 (Visit 5) and Day 28 (Visit 6), as measured by a composite score of the CANTAB Panel (SWM, RVP, PAL). • f. Dose-related differences between psychological effects of psilocybin at Baseline (Day −1 [Visit 2]), Day 7 (Visit 5) and Day 84 (Visit 7), as measured by Social Cognition Panel scales (PET, RMET, TEQ, SVO, SSR). • g. Differences in cognitive effects of psilocybin between psilocybin-naïve and experienced subjects at Baseline (Day −1 [Visit 2]), Day 7 (Visit 5) and Day 28 (Visit 6), as measured by a composite score of the CANTAB Panel (SWM, RVP, PAL). • h. Differences in Positive and Negative Affect Schedule (PANAS) after study drug administration on Day 0 (Visit 3). • i. Differences between psilocybin and placebo in the Emotion Recognition Test (ERT), Intra-Extra Dimensional Set Shift (IED), One Touch Stockings (OTS), Verbal Fluency and Digit Span Forward at Day 7 (Visit 5). • j. A composite score of the CANTAB Panel, including the following tests: • i. Spatial Working Memory (SWM) (performed at Visit 2, Visit 5, and Visit 6). • ii. Rapid Visual Information Processing (RVP) (performed at Visit 2, Visit 5, and Visit 6). • iii. Paired Associates Learning (PAL) (performed at Visit 2, Visit 5, and Visit 6). • k. Cognitive Flexibility Panel • i. Emotion Recognition Task (ERT) (performed at Visit 5). • ii. Intra-Extra Dimensional Set Shift (IED) (performed at Visit 5). • iii. One Touch Stockings (OTS) (performed at Visit 5). • iv. Verbal Fluency (performed at Visit 5). • v. Digit Span Forward (performed at Visit 5). • l. Five Dimension Altered States of Consciousness questionnaire (5D-ASC) (performed at Visit 3). • m. PANAS (performed at Visit 2 and Visit 3). • n. NEO-Five Factor Inventory (NEO-FFI) (performed at Visit 2, Visit 5, and Visit 7). • o. Symptom Checklist-90 item (SCL-90) (performed at Visit 2, Visit 5, and Visit 7). • p. Life Changes Inventory (LCI): The LCI measures changes in attitudes and values after near-death experiences often used to evaluate personal transformation following spiritually oriented experiences and practices. (performed at Visit 5 and Visit 7). • q. Social Cognition Panel scales • i. Pictorial Empathy Test (PET) (performed at Visit 2, Visit 5, and Visit 7). • ii. Reading the Mind in the Eyes Test (RMET) (performed at Visit 2, Visit 5, and Visit 7). • iii. Social Value Orientation (SVO) (performed at Visit 2, Visit 5, and Visit 7). • iv. Toronto Empathy Questionnaire (TEQ) (performed at Visit 2, Visit 5, and Visit 7). • v. […]

**Q.** With `CN(C)CCc1c[nH]c2cccc(OP(=O)(O)O)c12` [psilocybin] as the compound, how does the “LCI Self-Acceptance Scores (LS mean)” value (10 mg psilocybin, Day 7 (Example 19)) read?
**A.** 0.8

**Q.** What about the “LCI Self-Acceptance Scores (LS mean)” value (10 mg psilocybin, Day 84 (Example 19)) of the same compound?
**A.** 0.6

**Q.** And the “LCI Self-Acceptance Scores (LS mean)” value (25 mg psilocybin, Day 7 (Example 19))?
**A.** 0.6

**Q.** And the “LCI Self-Acceptance Scores (LS mean)” value (25 mg psilocybin, Day 84 (Example 19))?
**A.** 0.6

**Q.** What about the “LCI - absolute change, difference Psilocybin 10 mg - Placebo” value (Day 7) of the same compound?
**A.** 0.4

**Q.** And the “LCI - absolute change, difference Psilocybin 25 mg - Placebo” value (Day 7)?
**A.** 0.3

**Q.** What about the “LCI - absolute change, difference Psilocybin (25 mg-10 mg)” value (Day 7) of the same compound?
**A.** −0.1

**Q.** And the “LCI appreciation for life, difference Psilocybin 10 mg - Placebo” value (Day 7)?
**A.** 0.6

**Q.** What about the “LCI appreciation for life, difference Psilocybin 25 mg - Placebo” value (Day 7) of the same compound?
**A.** 0.5

**Q.** What about the “LCI appreciation for life, difference Psilocybin (25 mg-10 mg)” value (Day 7) of the same compound?
**A.** −0.2

**Q.** What about the “LCI appreciation of death, difference Psilocybin 10 mg - Placebo” value (Day 7) of the same compound?
**A.** 0.1

**Q.** And the “LCI appreciation of death, difference Psilocybin 25 mg - Placebo” value (Day 7)?
**A.** 0.1

**Q.** And the “LCI appreciation of death, difference Psilocybin (25 mg-10 mg)” value (Day 7)?
**A.** −0.0

**Q.** What about the “LCI concern for others, difference Psilocybin 10 mg - Placebo” value (Day 7) of the same compound?
**A.** 0.4

**Q.** What about the “LCI concern for others, difference Psilocybin 25 mg - Placebo” value (Day 7) of the same compound?
**A.** 0.4

**Q.** And the “LCI concern for others, difference Psilocybin (25 mg-10 mg)” value (Day 7)?
**A.** 0.0

**Q.** What about the “LCI concern for worldly achievement, difference Psilocybin 10 mg - Placebo” value (Day 7) of the same compound?
**A.** −0.2

**Q.** What about the “LCI concern for worldly achievement, difference Psilocybin 25 mg - Placebo” value (Day 7) of the same compound?
**A.** −0.1

**Q.** And the “LCI concern for worldly achievement, difference Psilocybin (25 mg-10 mg)” value (Day 7)?
**A.** 0.1

**Q.** And the “LCI concern social, difference Psilocybin 10 mg - Placebo” value (Day 7)?
**A.** 0.1

**Q.** What about the “LCI concern social, difference Psilocybin 25 mg - Placebo” value (Day 7) of the same compound?
**A.** 0.2

**Q.** And the “LCI concern social, difference Psilocybin (25 mg-10 mg)” value (Day 7)?
**A.** 0.1

**Q.** What about the “LCI quest for meaning, difference Psilocybin 10 mg - Placebo” value (Day 7) of the same compound?
**A.** 0.4

**Q.** And the “LCI quest for meaning, difference Psilocybin 25 mg - Placebo” value (Day 7)?
**A.** 0.4

**Q.** And the “LCI quest for meaning, difference Psilocybin (25 mg-10 mg)” value (Day 7)?
**A.** 0.0

**Q.** And the “LCI religiousness, difference Psilocybin 10 mg - Placebo” value (Day 7)?
**A.** −0.1

**Q.** What about the “LCI religiousness, difference Psilocybin 25 mg - Placebo” value (Day 7) of the same compound?
**A.** 0.0

**Q.** What about the “LCI religiousness, difference Psilocybin (25 mg-10 mg)” value (Day 7) of the same compound?
**A.** 0.1

**Q.** And the “LCI self-acceptance, difference Psilocybin 10 mg - Placebo” value (Day 7)?
**A.** 0.7

**Q.** What about the “LCI self-acceptance, difference Psilocybin 25 mg - Placebo” value (Day 7) of the same compound?
**A.** 0.5

**Q.** And the “LCI self-acceptance, difference Psilocybin (25 mg-10 mg)” value (Day 7)?
**A.** −0.1

**Q.** And the “LCI spirituality, difference Psilocybin 10 mg - Placebo” value (Day 7)?
**A.** 0.3

**Q.** And the “LCI spirituality, difference Psilocybin 25 mg - Placebo” value (Day 7)?
**A.** 0.2

**Q.** And the “LCI spirituality, difference Psilocybin (25 mg-10 mg)” value (Day 7)?
**A.** −0.1

**Q.** And the “LCI - absolute change, difference Psilocybin 10 mg - Placebo” value (Day 84)?
**A.** 0.4

**Q.** What about the “LCI - absolute change, difference Psilocybin 25 mg - Placebo” value (Day 84) of the same compound?
**A.** 0.4

**Q.** And the “LCI - absolute change, difference Psilocybin (25 mg-10 mg)” value (Day 84)?
**A.** −0.0

**Q.** What about the “LCI appreciation for life, difference Psilocybin 10 mg - Placebo” value (Day 84) of the same compound?
**A.** 0.6

**Q.** And the “LCI appreciation for life, difference Psilocybin 25 mg - Placebo” value (Day 84)?
**A.** 0.5

**Q.** And the “LCI appreciation for life, difference Psilocybin (25 mg-10 mg)” value (Day 84)?
**A.** −0.1

**Q.** And the “LCI appreciation of death, difference Psilocybin 10 mg - Placebo” value (Day 84)?
**A.** 0.2

**Q.** What about the “LCI appreciation of death, difference Psilocybin 25 mg - Placebo” value (Day 84) of the same compound?
**A.** 0.2

**Q.** And the “LCI appreciation of death, difference Psilocybin (25 mg-10 mg)” value (Day 84)?
**A.** 0.0

**Q.** And the “LCI concern for others, difference Psilocybin 10 mg - Placebo” value (Day 84)?
**A.** 0.4

**Q.** And the “LCI concern for others, difference Psilocybin 25 mg - Placebo” value (Day 84)?
**A.** 0.5

**Q.** And the “LCI concern for others, difference Psilocybin (25 mg-10 mg)” value (Day 84)?
**A.** 0.1

**Q.** What about the “LCI concern for worldly achievement, difference Psilocybin 10 mg - Placebo” value (Day 84) of the same compound?
**A.** −0.2

**Q.** What about the “LCI concern for worldly achievement, difference Psilocybin 25 mg - Placebo” value (Day 84) of the same compound?
**A.** −0.1

**Q.** What about the “LCI concern for worldly achievement, difference Psilocybin (25 mg-10 mg)” value (Day 84) of the same compound?
**A.** 0.1

**Q.** And the “LCI concern social, difference Psilocybin 10 mg - Placebo” value (Day 84)?
**A.** 0.1

**Q.** What about the “LCI concern social, difference Psilocybin 25 mg - Placebo” value (Day 84) of the same compound?
**A.** 0.1

**Q.** And the “LCI concern social, difference Psilocybin (25 mg-10 mg)” value (Day 84)?
**A.** 0.0

**Q.** What about the “LCI quest for meaning, difference Psilocybin 10 mg - Placebo” value (Day 84) of the same compound?
**A.** 0.4

**Q.** And the “LCI quest for meaning, difference Psilocybin 25 mg - Placebo” value (Day 84)?
**A.** 0.4

**Q.** And the “LCI quest for meaning, difference Psilocybin (25 mg-10 mg)” value (Day 84)?
**A.** −0.0

**Q.** What about the “LCI religiousness, difference Psilocybin 10 mg - Placebo” value (Day 84) of the same compound?
**A.** −0.0

**Q.** And the “LCI religiousness, difference Psilocybin 25 mg - Placebo” value (Day 84)?
**A.** 0.0

**Q.** What about the “LCI religiousness, difference Psilocybin (25 mg-10 mg)” value (Day 84) of the same compound?
**A.** 0.1

**Q.** What about the “LCI self-acceptance, difference Psilocybin 10 mg - Placebo” value (Day 84) of the same compound?
**A.** 0.5

**Q.** What about the “LCI self-acceptance, difference Psilocybin 25 mg - Placebo” value (Day 84) of the same compound?
**A.** 0.5

**Q.** What about the “LCI self-acceptance, difference Psilocybin (25 mg-10 mg)” value (Day 84) of the same compound?
**A.** 0.0

**Q.** What about the “LCI spirituality, difference Psilocybin 10 mg - Placebo” value (Day 84) of the same compound?
**A.** 0.4

**Q.** And the “LCI spirituality, difference Psilocybin 25 mg - Placebo” value (Day 84)?
**A.** 0.4

**Q.** What about the “LCI spirituality, difference Psilocybin (25 mg-10 mg)” value (Day 84) of the same compound?
**A.** −0.0
